Legend:
[1] = test system: Mycolicibacterium smegmatis; experiment: Antimycobacterial activity against Mycobacterium smegmatis assessed as inhibition of mycobacterial growth incubated for 48 hrs; format: functional, organism-based
[2] = test system: Mycobacterium tuberculosis; experiment: Antimycobacterial activity against Mycobacterium tuberculosis HN878 assessed as inhibition of mycobacterial growth incubated for 5 days; format: functional, organism-based; conditions: HN878, 120 h
[3] = test system: Mycolicibacterium smegmatis; experiment: Antimycobacterial activity against Mycobacterium smegmatis assessed as inhibition of mycobacterial growth incubated for 48 hrs in presence of 50 uM undecaprenyl phosphate; format: functional, organism-based
[4] = test system: Mycolicibacterium smegmatis; experiment: Rescue fold, ratio of IC50 for antimycobacterial activity against Mycobacterium smegmatis in presence of 50 uM undecaprenyl phosphate to IC50 for antimycobacterial activity against Mycobacterium smegmatis; format: functional
[5] = test system: Mycobacterium tuberculosis; experiment: Antimycobacterial activity against Mycobacterium tuberculosis HN878 assessed as inhibition of mycobacterial growth incubated for 5 days in presence of 50 uM undecaprenyl phosphate; format: functional, organism-based; conditions: HN878, 120 h
[6] = test system: Mycolicibacterium smegmatis; experiment: Antimycobacterial activity against Mycobacterium smegmatis assessed as inhibition of mycobacterial growth incubated for 48 hrs in presence of 50 uM menaquinone-4; format: functional, organism-based
[7] = test system: Mycolicibacterium smegmatis; experiment: Antimycobacterial activity against Mycobacterium smegmatis assessed as inhibition of mycobacterial growth incubated for 48 hrs in presence of 50 uM menaquinone-4 and 50 uM undecaprenyl phosphate; format: functional, organism-based
[8] = test system: Mycolicibacterium smegmatis; experiment: Antimycobacterial activity against Mycobacterium smegmatis assessed as inhibition of mycobacterial growth incubated for 48 hrs in presence of 200 uM undecaprenyl phosphate; format: functional, organism-based
[9] = test system: Mycolicibacterium smegmatis; experiment: Antimycobacterial activity against Mycobacterium smegmatis assessed as inhibition of mycobacterial growth incubated for 48 hrs in presence of 100 uM undecaprenyl phosphate; format: functional, organism-based
[10] = test system: Mycolicibacterium smegmatis; experiment: Antimycobacterial activity against Mycobacterium smegmatis assessed as inhibition of mycobacterial growth incubated for 48 hrs in presence of 25 uM undecaprenyl phosphate; format: functional, organism-based
[11] = test system: Mycolicibacterium smegmatis; experiment: Antimycobacterial activity against Mycobacterium smegmatis assessed as inhibition of mycobacterial growth incubated for 48 hrs in presence of 12.5 uM undecaprenyl phosphate; format: functional, organism-based
[12] = test system: Mycolicibacterium smegmatis; experiment: Antimycobacterial activity against Mycobacterium smegmatis assessed as inhibition of mycobacterial growth incubated for 48 hrs in presence of 25 uM menaquinone-4; format: functional, organism-based
[13] = test system: Mycolicibacterium smegmatis; experiment: Antimycobacterial activity against Mycobacterium smegmatis assessed as inhibition of mycobacterial growth incubated for 48 hrs in presence of 200 uM menaquinone-4; format: functional, organism-based
[14] = test system: Mycolicibacterium smegmatis; experiment: Antimycobacterial activity against Mycobacterium smegmatis assessed as inhibition of mycobacterial growth incubated for 48 hrs in presence of 50 uM menaquinone-7; format: functional, organism-based
[15] = test system: Mycolicibacterium smegmatis; experiment: Antimycobacterial activity against Mycobacterium smegmatis assessed as inhibition of mycobacterial growth incubated for 48 hrs in presence of 100 uM menaquinone-7; format: functional, organism-based
[16] = test system: Cell membrane; experiment: Uncoupling activity in Escherichia coli inverted membrane vesicles assessed as collapse of pH gradient by measuring increase in ACMA fluorescence intensity by fluorometric analysis; format: subcellular
[17] = biological target: T1, (2Z,6E)-farnesyl diphosphate synthase (Mycobacterium tuberculosis, UniProt P9WFF5); experiment: Inhibition of Mycobacterium tuberculosis cis-farnesyl diphosphate synthase
T1 sequence (P9WFF5 whole entry): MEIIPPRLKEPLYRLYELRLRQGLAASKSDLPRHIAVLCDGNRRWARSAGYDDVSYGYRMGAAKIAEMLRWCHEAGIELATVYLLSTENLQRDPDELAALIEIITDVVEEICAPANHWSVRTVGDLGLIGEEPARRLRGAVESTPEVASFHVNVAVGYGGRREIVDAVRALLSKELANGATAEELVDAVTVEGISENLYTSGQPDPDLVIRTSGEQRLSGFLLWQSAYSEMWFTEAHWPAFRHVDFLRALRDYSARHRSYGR

[18] = biological target: T2, Decaprenyl diphosphate synthase (Mycobacterium tuberculosis, UniProt P9WFF7); experiment: Inhibition of Mycobacterium tuberculosis cis-decaprenyl diphosphate synthase
T2 sequence (P9WFF7 whole entry): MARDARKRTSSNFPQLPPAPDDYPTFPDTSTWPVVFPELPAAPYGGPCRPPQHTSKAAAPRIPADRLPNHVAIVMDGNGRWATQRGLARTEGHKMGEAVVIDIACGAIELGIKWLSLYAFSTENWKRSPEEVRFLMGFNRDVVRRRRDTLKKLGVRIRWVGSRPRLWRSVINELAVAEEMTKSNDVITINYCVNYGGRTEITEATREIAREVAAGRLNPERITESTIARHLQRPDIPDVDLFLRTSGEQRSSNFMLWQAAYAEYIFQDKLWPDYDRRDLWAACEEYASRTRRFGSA

[19] = Inhibition of Plasmodium vivax geranylgeranyl diphosphate synthase
[20] = Inhibition of Staphylococcus aureus undecaprenyl diphosphate synthase
[21] = Inhibition of Escherichia coli undecaprenyl diphosphate synthase
[22] = Inhibition of Staphylococcus aureus farnesyl diphosphate synthase
[23] = Inhibition of Staphylococcus aureus dehydrosqualene synthase
[24] = test system: Mycolicibacterium smegmatis; experiment: Rescue fold, ratio of IC50 for antimycobacterial activity against Mycobacterium smegmatis in presence of 200 uM menaquinone-4 to IC50 for antimycobacterial activity against Mycobacterium smegmatis; format: functional
[25] = biological target: T3, Trehalose monomycolate exporter MmpL3 (Mycolicibacterium smegmatis, UniProt A0QP27); experiment: Binding affinity to C-terminal 10XHis-tagged Mycobacterium smegmatis mc2 155 MmpL3 expressed in Mycobacterium smegmatis mc2 155 cells by microscale thermophoresis analysis
T3 sequence (A0QP27 whole entry): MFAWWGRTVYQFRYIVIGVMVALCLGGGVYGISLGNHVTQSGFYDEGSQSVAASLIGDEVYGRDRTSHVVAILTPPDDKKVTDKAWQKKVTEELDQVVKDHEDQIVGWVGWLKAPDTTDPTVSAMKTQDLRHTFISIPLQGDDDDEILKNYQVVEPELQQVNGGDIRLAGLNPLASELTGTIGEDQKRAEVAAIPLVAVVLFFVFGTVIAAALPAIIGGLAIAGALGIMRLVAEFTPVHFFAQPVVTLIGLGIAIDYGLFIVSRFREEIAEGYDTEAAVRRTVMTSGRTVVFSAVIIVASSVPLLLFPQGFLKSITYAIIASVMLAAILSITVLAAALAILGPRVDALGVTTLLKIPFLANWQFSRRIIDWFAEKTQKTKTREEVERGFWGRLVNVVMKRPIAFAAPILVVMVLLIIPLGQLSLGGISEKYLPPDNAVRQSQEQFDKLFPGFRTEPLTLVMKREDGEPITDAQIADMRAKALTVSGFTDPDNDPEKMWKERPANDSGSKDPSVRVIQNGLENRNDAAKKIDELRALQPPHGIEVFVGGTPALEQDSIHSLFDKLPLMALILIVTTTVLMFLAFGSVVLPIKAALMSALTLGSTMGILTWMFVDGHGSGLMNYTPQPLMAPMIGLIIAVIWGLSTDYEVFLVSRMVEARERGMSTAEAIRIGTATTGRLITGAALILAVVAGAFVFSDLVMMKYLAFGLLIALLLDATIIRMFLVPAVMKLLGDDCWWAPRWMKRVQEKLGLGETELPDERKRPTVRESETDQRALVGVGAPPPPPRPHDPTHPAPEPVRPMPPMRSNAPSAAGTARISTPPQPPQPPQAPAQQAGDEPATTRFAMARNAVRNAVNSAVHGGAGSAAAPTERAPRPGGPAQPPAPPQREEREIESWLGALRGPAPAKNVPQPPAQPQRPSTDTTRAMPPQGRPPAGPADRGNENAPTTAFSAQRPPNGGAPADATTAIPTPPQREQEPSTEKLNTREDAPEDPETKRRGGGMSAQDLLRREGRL

[26] = biological target: T3, Trehalose monomycolate exporter MmpL3; experiment: Binding affinity to Mycobacterium smegmatis MmpL3 by surface plasmon resonance assay
[27] = test system: Mycolicibacterium smegmatis; experiment: Rescue fold, ratio of IC50 for antimycobacterial activity against Mycobacterium smegmatis in presence of 100 uM menaquinone-7 to IC50 for antimycobacterial activity against Mycobacterium smegmatis; format: functional
[28] = biological target: T4, Undecaprenyl-diphosphatase (Escherichia coli (strain K12), UniProt P60932); experiment: Inhibition of UppP in Escherichia coli using FPP as substrate pretreated for 20 mins followed by FPP addition and measured after 60 mins by malachite green based assay
T4 sequence (P60932 whole entry): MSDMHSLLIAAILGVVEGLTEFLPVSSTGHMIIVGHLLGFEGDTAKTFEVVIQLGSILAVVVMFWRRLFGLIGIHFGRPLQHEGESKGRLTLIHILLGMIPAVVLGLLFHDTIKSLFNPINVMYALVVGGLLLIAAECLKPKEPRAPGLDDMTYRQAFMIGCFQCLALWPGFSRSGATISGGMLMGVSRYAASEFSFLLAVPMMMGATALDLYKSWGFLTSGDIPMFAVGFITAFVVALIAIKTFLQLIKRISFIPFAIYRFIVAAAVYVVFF

[29] = test system: Mycolicibacterium smegmatis; experiment: Antimycobacterial activity against Mycobacterium smegmatis assessed as inhibition of mycobacterial growth incubated for 48 hrs in presence of 50 uM Upp; format: functional, organism-based
[30] = Drug metabolism in Mycobacterium tuberculosis HN878 assessed as N1-(adamantan-1-yl)ethane-1,2-diamine metabolite formation at 10 uM incubated for 24 hrs by LC-MS analysis; format: ADME

CC(C)=CCC/C(C)=C/CNCCNC1C2CC3CC(C2)CC1C3 (stereo not given) [SQ109]
IC50 [1]: 1.5 µM | IC50 [2]: 0.41 µM | IC50 [3]: 16 µM | Ratio IC50 [4]: 6.4 | IC50 [5]: 6.1 µM | IC50 [6]: 2.9 µM | IC50 [7]: 16 µM | IC50 [8]: 14 µM | IC50 [9]: 14 µM | IC50 [10]: 8.9 µM | IC50 [11]: 3.7 µM | IC50 [12]: 2.1 µM | IC50 [13]: 4.8 µM | IC50 [14]: 4.2 µM | IC50 [15]: 6.5 µM | IC50 [16]: 2.3 µM | IC50 [17]: ≥ 50 µM | IC50 [18]: ≥ 50 µM | IC50 [19]: ≥ 50 µM | IC50 [20]: ≥ 50 µM | IC50 [21]: ≥ 50 µM | IC50 [22]: ≥ 50 µM | IC50 [23]: ≥ 50 µM | Ratio IC50 [24]: 2 | Kd [25]: 1.6 µM | Kd [26]: 400 µM | Ratio IC50 [27]: 3 | IC50 [28]: 32 µM | IC50 [29]: 1.4 µM | Drug metabolism [30]: Metabolite_Notdetected
